Results reported in patent publication US20150352022A1, “Cosmetic Compositions and Methods For Inhibiting Melanin Synthesis” (The Procter & Gamble Company, priority 2013, published 2015).

Tested on: B16-F1 mouse melanoma cells
Test: Melanin Synthesis Assay
Type: cell-based
Experimental: A B16-F1 mouse melanoma cell line may be employed as an assay to measure melanin synthesis. The B16-F1 cells may be obtained from American Tissue Culture Collection, Virginia, USA. The cell culture medium that may be used in the assay may comprise 500 mL of Dulbecco's Modified Eagle's Medium (DMEM), 50 mL Fetal Bovine Serum (FBS), and 5 mL of penicillin-streptomycin liquid. B16-F1 cells that are cultured in this medium and grown to greater than 90% confluency synthesize melanin. While not intending to be bound by any theory, it is hypothesized that melanin synthesis is stimulated by the culture medium and/or stress induced by growth to a high confluency. […] Equipment used in the assay include a CO2 incubator, such as a Forma Series Model 3110 by Therma Scientific, Massachusetts, USA; a hemocytometer, such as a Bright Line model by Hauser Scientific, Pennsylvania, USA; and a UV-Visible Spectrum Plate Reader, such as a SpectraMax250 from Molecular Devices, California, USA. […] Read the 96 well plate using the UV-Vis Plate Reader at 410 nm to optically measure the amount of melanin produced between wells that are treated with [test compound] and control wells that are not treated with a test compound. […] Percentage of melanin synthesis inhibition is calculated by the following equation: [formula] Where OD410 is the Optical Density at 410 nm as measured by the UV-Vis Spectrum Plate Reader. […]

With `CC(C)=CCC[C@](C)(O)[C@@H]1CC=C(C)CC1` [Sample 1, bisabolol] the “Average Melanin % Inhibition” value (OD 410 nm, Bis 0.1%, HD 0.00056%, UP 0.00011%, Nia 0.00056% where present) was 2.2% and the “reduction of the production of melanin as compared to Sample 4 (HD/UP/Nia)” value (statistical comparison versus Sample 4) was “did not significantly reduce”.
